According to patent US20210128566A1, “NOVEL FUNCTIONALIZED PURINE-2,6-DIONES AND THEIR USE IN MEDICINE” (THOMAS HELLEDAYS STIFTELSE FÖR MEDICINSK FORSKNING, priority 2017, published 2021):

molecular target: recombinant human NUDT5 (Homo sapiens, UniProt Q9UKK9); assay: NUDT5 inhibitor activity by malachite green reporter assay; type: biochemical; details: Table 3; 6 nM NUDT5, 50 μM ADP-Ribose, 15 minutes at room temperature
Protocol: NUDT5 inhibitors were evaluated using a coupled enzymatic assay with detection of inorganic phosphate (Pi) using the malachite green assay. Following enzymatic hydrolysis of ADP-Ribose (Sigma-Aldrich A0572) by NUDT5, to yield AMP and ribose-5-phosphate, the latter product is continuously processed by a significant excess of alkaline phosphatase (Sigma-Aldrich, P0114). Formation of Pi is quantified based on the green complex (that absorbs at 630 nm) formed between malachite green and molybdate according to published procedure (Baykov, A. A., Evtushenko, O. A. and Avaeva, S. M., Anal Biochem, 171, 266-270 (1988)). Assay buffer consisted of 10 mM Tris-acetate at pH 8.0, 40 mM sodium chloride, 10 mM magnesium acetate, 0.005% Tween-20 and 1 mM dithiothreitol (DTT). The final conditions consisted of 6 nM recombinant human NUDT5, 50 μM ADP-Ribose and 10 U/ml of calf intestine alkaline phosphatase. The plates with compounds, enzymes and substrate were incubated at room temperature for 15 minutes, after which the reaction was terminated and the signal developed by the addition of the malachite green reagent using a MultiDrop (Thermo Scientific). Following vigorous shaking on plate shakers for a minimum of eight minutes the absorbance was read in a microplate reader (HidexSense) using a filter at 630 nm and a read time of 0.1 s per well. Inhibitors were used in dilutions from 100 μM to 1.7 nM in 3-fold dilution steps. Experiments were run in duplicate and confirmed in two independent experiments. IC50 values were determined by curve fitting using ExcelFit.

SMILES | IC50 [nM]
Cn1c(=O)c2c(nc(N3CCN(CCN)CC3)n2Cc2nnc(-c3ccc(Cl)c(Cl)c3)o2)n(C)c1=O [Example 30, 8-[4-(2-aminoethyl)piperazin-1-yl]-7-{[5-(3,4-dichlorophenyl)-1,3,4-oxadiazol-2-yl]methyl}-1,3-dimethyl-2,3,6,7-tetrahydro-1H-purine-2,6-dione] | 33.2
Cn1c(=O)c2c(nc(N3CCN(CCO)CC3)n2Cc2nnc(-c3ccc(Cl)c(Cl)c3)o2)n(C)c1=O [Example 31, 7-{[5-(3,4-dichlorophenyl)-1,3,4-oxadiazol-2-yl]methyl}-8-[4-(2-hydroxyethyl)piperazin-1-yl]-1,3-dimethyl-2,3,6,7-tetrahydro-1H-purine-2,6-dione] | 106
CC(=O)N1CCN(c2nc3c(c(=O)n(C)c(=O)n3C)n2Cc2nnc(-c3ccc(Cl)c(Cl)c3)o2)CC1 [Example 32, 8-(4-acetylpiperazin-1-yl)-7-{[5-(3,4-dichlorophenyl)-1,3,4-oxadiazol-2-yl]methyl}-1,3-dimethyl-2,3,6,7-tetrahydro-1H-purine-2,6-dione] | 76.7
CC1CN(c2nc3c(c(=O)n(C)c(=O)n3C)n2Cc2nnc(-c3ccc(Cl)c(Cl)c3)o2)CCN1 (centres unmarked) [Example 33, 7-{[5-(3,4-dichlorophenyl)-1,3,4-oxadiazol-2-yl]methyl}-1,3-dimethyl-8-(3-methylpiperazin-1-yl)-2,3,6,7-tetrahydro-1H-purine-2,6-dione] | 17.8
Cn1c(=O)c2c(nc(N3CCC(O)C3)n2Cc2nnc(-c3ccc(Cl)c(Cl)c3)o2)n(C)c1=O (centres unmarked) [Example 34, 7-{[5-(3,4-dichlorophenyl)-1,3,4-oxadiazol-2-yl]methyl}-8-(3-hydroxypyrrolidin-1-yl)-1,3-dimethyl-2,3,6,7-tetrahydro-1H-purine-2,6-dione] | 24.7
Cn1c(=O)c2c(nc(N3CCC3)n2Cc2nnc(-c3ccc(Cl)c(Cl)c3)o2)n(C)c1=O [Example 36, 8-(azetidin-1-yl)-7-{[5-(3,4-dichlorophenyl)-1,3,4-oxadiazol-2-yl]methyl}-1,3-dimethyl-2,3,6,7-tetrahydro-1H-purine-2,6-dione] | 34
Cn1c(=O)c2c(nc(N3CCC(O)CC3)n2Cc2nnc(-c3ccc(Cl)c(Cl)c3)o2)n(C)c1=O [Example 37, 7-{[5-(3,4-dichlorophenyl)-1,3,4-oxadiazol-2-yl]methyl}-8-(4-hydroxypiperidin-1-yl)-1,3-dimethyl-2,3,6,7-tetrahydro-1H-purine-2,6-dione] | 19.8
Cn1c(=O)c2c(nc(N3CCC(CN)CC3)n2Cc2nnc(-c3ccc(Cl)c(Cl)c3)o2)n(C)c1=O [Example 38, 8-[4-(aminomethyl)piperidin-1-yl]-7-{[5-(3,4-dichlorophenyl)-1,3,4-oxadiazol-2-yl)methyl}-1,3-dimethyl-2,3,6,7-tetrahydro-1H-purine-2,6-dione] | 18.5
COC(=O)C1CCN(c2nc3c(c(=O)n(C)c(=O)n3C)n2Cc2nnc(-c3ccc(Cl)c(Cl)c3)o2)CC1 [Example 39, methyl 1-(7-{[5-(3,4-dichlorophenyl)-1,3,4-oxadiazol-2-yl]methyl}-1,3-dimethyl-2,6-dioxo-2,3,6,7-tetrahydro-1H-purin-8-yl)piperidine-4-carboxylate] | 32.7
Cn1c(=O)c2c(nc(N3CCC(CO)CC3)n2Cc2nnc(-c3ccc(Cl)c(Cl)c3)o2)n(C)c1=O [Example 40, 7-{[5-(3,4-dichlorophenyl)-1,3,4-oxadiazol-2-yl]methyl}-8-[4-(hydroxymethyl)piperidin-1-yl]-1,3-dimethyl-2,3,6,7-tetrahydro-1H-purine-2,6-dione] | 20.3
Cn1c(=O)c2c(nc(N3CCCC(F)C3)n2Cc2nnc(-c3ccc(Cl)c(Cl)c3)o2)n(C)c1=O (centres unmarked) [Example 41, 7-{[5-(3,4-dichlorophenyl)-1,3,4-oxadiazol-2-yl]methyl}-8-(3-fluoropiperidin-1-yl)-1,3-dimethyl-2,3,6,7-tetrahydro-1H-purine-2,6-dione] | 24.2
Cn1c(=O)c2c(nc(NC3CC3)n2Cc2nnc(-c3ccc(Cl)c(Cl)c3)o2)n(C)c1=O [Example 42, 8-(cyclopropylamino)-7-{[5-(3,4-dichlorophenyl)-1,3,4-oxadiazol-2-yl]methyl}-1,3-dimethyl-2,3,6,7-tetrahydro-1H-purine-2,6-dione] | 26.4
COC1CCN(c2nc3c(c(=O)n(C)c(=O)n3C)n2Cc2nnc(-c3ccc(Cl)c(Cl)c3)o2)CC1 [Example 43, 7-{[5-(3,4-dichlorophenyl)-1,3,4-oxadiazol-2-yl]methyl}-8-(4-methoxypiperidin-1-yl)-1,3-dimethyl-2,3,6,7-tetrahydro-1H-purine-2,6-dione] | 26.8
Cn1c(=O)c2c(nc(N3CCCC(O)C3)n2Cc2nnc(-c3ccc(Cl)c(Cl)c3)o2)n(C)c1=O (centres unmarked) [Example 44, 7-{[5-(3,4-dichlorophenyl)-1,3,4-oxadiazol-2-yl]methyl}-8-(3-hydroxypiperidin-1-yl)-1,3-dimethyl-2,3,6,7-tetrahydro-1H-purine-2,6-dione] | 21.5
CN(C)C1CCN(c2nc3c(c(=O)n(C)c(=O)n3C)n2Cc2nnc(-c3ccc(Cl)c(Cl)c3)o2)CC1 [Example 45, 7-{[5-(3,4-dichlorophenyl)-1,3,4-oxadiazol-2-yl]methyl}-8-[4-(dimethylamino)piperidin-1-yl]-1,3-dimethyl-2,3,6,7-tetrahydro-1H-purine-2,6-dione] | 14.9
C[C@H]1CN(c2nc3c(c(=O)n(C)c(=O)n3C)n2Cc2nnc(-c3ccc(Cl)c(Cl)c3)o2)CCN1 [Example 46, 7-{[5-(3,4-dichlorophenyl)-1,3,4-oxadiazol-2-yl]methyl}-1,3-dimethyl-8-[(3S)-3-methylpiperazin-1-yl]-2,3,6,7-tetrahydro-1H-purine-2,6-dione] | 12
C[C@@H]1CN(c2nc3c(c(=O)n(C)c(=O)n3C)n2Cc2nnc(-c3ccc(Cl)c(Cl)c3)o2)CCN1 [Example 47, 7-{[5-(3,4-dichlorophenyl)-1,3,4-oxadiazol-2-yl]methyl}-1,3-dimethyl-8-[(3R)-3-methylpiperazin-1-yl]-2,3,6,7-tetrahydro-1H-purine-2,6-dione] | 11.9

The next lines start with the values.

IC50 [nM] | SMILES
69.4 | Cc1cccc(-c2nnc(Cn3c(N(C)C)nc4c3c(=O)n(C)c(=O)n4C)o2)c1 [Example 48, 8-(dimethylamino)-1,3-dimethyl-7-{[5-(3-methylphenyl)-1,3,4-oxadiazol-2-yl]methyl}-2,3,6,7-tetrahydro-1H-purine-2,6-dione]
356 | CCCNc1nc2c(c(=O)n(C)c(=O)n2C)n1Cc1nnc(-c2cccc(C)c2)o1 [Example 49, 1,3-dimethyl-7-{[5-(3-methylphenyl)-1,3,4-oxadiazol-2-yl]methyl}-8-(propylamino)-2,3,6,7-tetrahydro-1H-purine-2,6-dione]
144 | Cc1cccc(-c2nnc(Cn3c(NCc4ccccc4)nc4c3c(=O)n(C)c(=O)n4C)o2)c1 [Example 50, 8-(benzylamino)-1,3-dimethyl-7-{[5-(3-methylphenyl)-1,3,4-oxadiazo-2-yl]methyl}-2,3,6,7-tetrahydro-1H-purine-2,6-dione]
31.3 | Cc1cccc(-c2nnc(Cn3c(N4CCN(C)CC4)nc4c3c(=O)n(C)c(=O)n4C)o2)c1 [Example 51, 1,3-dimethyl-7-{[5-(3-methylphenyl)-1,3,4-oxadiazol-2-yl]methyl}-8-(4-methylpiperazin-1-yl)-2,3,6,7-tetrahydro-1H-purine-2,6-dione]
378 | COc1nc2c(c(=O)n(C)c(=O)n2C)n1Cc1nnc(-c2cccc(C)c2)o1 [Example 52, 8-methoxy-1,3-dimethyl-7-{[5-(3-methylphenyl)-1,3,4-oxadiazol-2-yl]methyl}-2,3,6,7-tetrahydro-1H-purine-2,6-dione]
806 | CCCCCCN1CCN(c2nc3c(c(=O)n(C)c(=O)n3C)n2Cc2nnc(-c3cccc(C)c3)o2)CC1 [Example 53, 8-(4-hexylpiperazin-1-yl)-1,3-dimethyl-7-{[5-(3-methylphenyl)-1,3,4-oxadiazol-2-yl]methyl}-2,3,6,7-tetrahydro-1H-purine-2,6-dione]
> 1000 | CCCCN1CCN(c2nc3c(c(=O)n(C)c(=O)n3C)n2Cc2nnc(-c3cccc(C)c3)o2)CC1 [Example 54, 8-(4-butylpiperazin-1-yl)-1,3-dimethyl-7-{[5-(3-methylphenyl)-1,3,4-oxadiazol-2-yl]methyl}-2,3,6,7-tetrahydro-1H-purine-2,6-dione]
221 | CCN1CCN(c2nc3c(c(=O)n(C)c(=O)n3C)n2Cc2nnc(-c3cccc(C)c3)o2)CC1 [Example 55, 8-(4-ethylpiperazin-1-yl)-1,3-dimethyl-7-{[5-(3-methylphenyl)-1,3,4-oxadiazol-2-yl]methyl}-2,3,6,7-tetrahydro-1H-purine-2,6-dione]
922 | Cc1cccc(-c2nnc(Cn3c(N4CCN(CCO)CC4)nc4c3c(=O)n(C)c(=O)n4C)o2)c1 [Example 56, 8-[4-(2-hydroxyethyl)piperazin-1-yl]-1,3-dimethyl-7-{[5-(3-methylphenyl)-1,3,4-oxadiazol-2-yl]methyl}-2,3,6,7-tetrahydro-1H-purine-2,6-dione]
